According to ChEMBL document CHEMBL1153662, “Synthesis and antiviral activity of alkylphosphonic acid derivatives of oxetanocin-A” (Bioorg Med Chem Lett, 1994):

Legend:
Assay type in all cases: functional, cell-based
MT4 = test: In vitro […] against HIV-1 in MT-4 cells by indirect an immunofluorescence assay at concentration up to 100 ug/mL; devoid of activity; conditions: Homo sapiens
Vero [1] = test: In vitro antiviral activity against HSV-1 in vero cells by a plaque reduction assay at concentration up to 10 ug/mL; devoid of activity; conditions: Chlorocebus sabaeus
Vero [2] = test: In vitro antiviral activity against HSV-2 in vero cells by a plaque reduction assay at concentration up to 10 ug/mL; devoid of activity; conditions: Chlorocebus sabaeus

Measured: Activity

Nc1ncnc2c1ncn2C1OC(C(O)P(=O)(O)O)C1CO (configuration not stated)
devoid of activity: all assays above

Nc1ncnc2c1ncn2C1OC(CCCP(=O)(O)O)C1CO (configuration not stated)
devoid of activity: all assays above

Nc1ncnc2c1ncn2C1OC(CCP(=O)(O)O)C1CO (configuration not stated)
devoid of activity: all assays above

Nc1ncnc2c1ncn2C1OC(/C=C/P(=O)(O)O)C1CO (configuration not stated)
devoid of activity: all assays above
